Assay results: paper PMC12095047, “Transport of phenoxyacetic acid herbicides by PIN-FORMED auxin transporters” (Nature Plants, 2025)
Where “and” joins values, the source holds several entries; their conditions need not be identical. Equal entries are not always repeated. Entries after “also recorded” stand apart in the source; their conditions may differ. Where two headings read alike, the source gives them in different places.

Columns and labels:
Assay type in all cases: biochemical
A. thaliana PIN8 = target: T1, A. thaliana PIN8 (Arabidopsis thaliana, UniProt Q9LFP6); test: SSM electrophysiology, peak current response on PIN8 proteoliposomes; conditions: for Peak current: individual sensors
T1 construct: made in house
T1 sequence (Q9LFP6 1-367): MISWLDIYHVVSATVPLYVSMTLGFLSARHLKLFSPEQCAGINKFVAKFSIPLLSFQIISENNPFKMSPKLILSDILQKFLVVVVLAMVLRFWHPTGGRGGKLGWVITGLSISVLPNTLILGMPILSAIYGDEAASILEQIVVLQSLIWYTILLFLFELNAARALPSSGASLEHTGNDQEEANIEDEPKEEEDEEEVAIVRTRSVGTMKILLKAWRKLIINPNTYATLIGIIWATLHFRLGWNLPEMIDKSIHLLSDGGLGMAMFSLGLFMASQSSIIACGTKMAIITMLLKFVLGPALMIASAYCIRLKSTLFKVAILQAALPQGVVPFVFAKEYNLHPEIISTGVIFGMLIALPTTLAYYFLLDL
Method: (§1) SSM, using a SURFE2R N1 from Nanion Technologies, was conducted as described. In brief, soy polar lipid mix (38% phosphatidyl choline, 30% phosphatidyl ethanolamine, 18% phosphatidyl inositol, 7% phosphatidic acid and 7% other soy lipids) and 1-palmitoyl-2-oleoyl-sn-glycero-3-phosphocholin were purchased from Avanti. Liposomes were prepared in Ringer solution without Ca^2+ (115 mM NaCl, 2.5 mM KCl, 1 mM NaHCO3, 10 mM HEPES pH7.4, 1 mM MgCl2) and homogenized using a Lipsofast (Avestin) with a […]. Triton X-100 was added to the liposomes to a final concentration of 1% (v/v). Protein was added to liposomes to a calculated lipid-to-protein ratio (LPR) of 10 unless stated otherwise. The detergent was removed using 400 mg ml^−1 Bio Beads (BioRad) overnight at 4 °C in a rotary shaker. Proteoliposomes were frozen in liquid nitrogen and kept at −80 °C until use. Proteoliposomes were diluted 1:5 in Ringer solution without Ca^2+, sonicated five times and then applied to the sensors by centrifugation (30 min, 3,000 g, 4 °C). Non-activating buffer was Ringer solution without Ca^2+ as described unless specified otherwise, and activating buffer contained the substrate of interest. In most instances we used a single-solution exchange experiment. In this case proteoliposomes, immobilized on the supported membrane, are kept in non-activating buffer as specified. At the beginning of the experiment the non-activating buffer is replaced with fresh identical non-activating buffer, and after 1 s, activating buffer (same buffer containing substrate) is added. After another second, the buffer is replaced with non-activating buffer again. Current response is recorded throughout the entire 3 s. For competition or inhibition, the respective compound was present in non-activating and activating solutions. Each experiment was performed on at least two individual sensors. On each sensor each measurement consists of three technical replicates where the mean is calculated. KD values were determined as described previously. Briefly, the binding current induced by 100 µM NPA was recorded in the presence of different concentrations of the substrate under investigation ranging between 0 µM and 1,000 µM present in the activating solution and the non-activating solution (Extended Data Fig. 5b). […] The maximum peak current was then plotted as a function of the concentration of the substrate under investigation and plotted against the degree of inhibition and fitted with a one-site binding model using GraphPad Prism V10.4.1 The half maximal concentration corresponds to the KD of the substrate under investigation.

PIN8 I51Y = target: T2, PIN8 I51Y (Arabidopsis thaliana, UniProt Q9LFP6, I51Y); conditions: Michaelis–Menten fit
T2 construct: made in house
T2 sequence (Q9LFP6 whole entry I51Y): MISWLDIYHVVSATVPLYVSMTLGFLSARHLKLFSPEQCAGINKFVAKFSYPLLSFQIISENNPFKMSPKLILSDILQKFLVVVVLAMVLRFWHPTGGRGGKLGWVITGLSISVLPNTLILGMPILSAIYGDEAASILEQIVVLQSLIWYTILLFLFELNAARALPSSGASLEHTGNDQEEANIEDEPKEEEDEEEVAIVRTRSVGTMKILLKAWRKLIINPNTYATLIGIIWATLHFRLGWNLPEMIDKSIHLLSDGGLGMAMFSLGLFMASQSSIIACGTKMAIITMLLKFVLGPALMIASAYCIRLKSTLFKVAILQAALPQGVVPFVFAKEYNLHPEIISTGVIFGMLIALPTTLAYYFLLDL
Method: as §1
(§2) The protocol for expression and purification of AtPIN8 protein (Uniprot: Q9LFP6) in lauryl maltose neopentyl glycol was described previously. All point mutants were generated using Q5 Site-Directed mutagenesis kit (New England Biolabs). The C-flat Holey Carbon grids (CF-1.2/1.3, Cu-300 mesh) were glow-discharged for 45 s at 15 mA in a GloQube Plus (Quorum). […] After 1 h of incubation on ice, the sample was centrifuged at 16,000 g for 15 min before blotting to remove precipitation. A drop of 4 µl of each sample was applied to the glow-discharged grids, blotted with a Vitrobot Mark IV (ThermoFisher Scientific) using the following settings (temperature 4 °C, 100% humidity, blot time of 4 s, blot force −1) and vitrified in liquid ethane.

PIN8 N223A = target: T3, PIN8 N223A (Arabidopsis thaliana, UniProt Q9LFP6, N223A); conditions: N223A
T3 construct: made in house
T3 sequence (Q9LFP6 whole entry N223A): as the sequence (Q9LFP6 whole entry I51Y) above, with Y51I, N223A counted along it
Method: as §1, §2

PIN8 S146A = target: T4, PIN8 S146A (Arabidopsis thaliana, UniProt Q9LFP6, S146A); conditions: for Peak current: S146A, individual sensors
T4 construct: made in house
T4 sequence (Q9LFP6 whole entry S146A): as the sequence (Q9LFP6 whole entry I51Y) above, with Y51I, S146A counted along it
Method: as §1, §2

PIN8 S55A = target: T5, PIN8 S55A (Arabidopsis thaliana, UniProt Q9LFP6, S55A); conditions: for Peak current: S55A, individual sensors
T5 construct: made in house
T5 sequence (Q9LFP6 whole entry S55A): as the sequence (Q9LFP6 whole entry I51Y) above, with Y51I, S55A counted along it
Method: as §1, §2

PIN8 S55A/S146A = target: T6, PIN8 S55A/S146A (Arabidopsis thaliana, UniProt Q9LFP6, S146A/S55A); conditions: Michaelis–Menten fit
T6 construct: made in house
T6 sequence (Q9LFP6 whole entry S55A/S146A): as the sequence (Q9LFP6 whole entry I51Y) above, with Y51I, S55A, S146A counted along it
Method: as §1, §2

PIN8 Y150A = target: T7, PIN8 Y150A (Arabidopsis thaliana, UniProt Q9LFP6, Y150A); conditions: for Peak current: Y150A, individual sensors
T7 construct: made in house
T7 sequence (Q9LFP6 whole entry Y150A): as the sequence (Q9LFP6 whole entry I51Y) above, with Y51I, Y150A counted along it
Method: as §1, §2

PIN8 N117A = target: T8, PIN8 N117A (Arabidopsis thaliana, UniProt Q9LFP6, N117A); test: SSM electrophysiology peak current, PIN8 N117A proteoliposomes; conditions: for Relative Peak Current of WT (%): Substrate 2,4-D, replicates
T8 construct: made in house
T8 sequence (Q9LFP6 whole entry N117A): as the sequence (Q9LFP6 whole entry I51Y) above, with Y51I, N117A counted along it
Method: as §1, §2

[1] = target: T9, wild-type PIN8 proteoliposomes (Arabidopsis thaliana, UniProt Q9LFP6); test: SSM electrophysiology, peak width (FWHM) of current response at LPR10 and LPR50; conditions: LPR10 versus LPR50
T9 construct: made in house
T9 sequence (Q9LFP6 1-367): T1 sequence (Q9LFP6 1-367)
Method: as §1

[2] = WT PIN8 proteoliposomes, Michaelis–Menten fit
[3] = read-out: EC50 of peak current response

SMILES: O=C(O)COc1ccc(Cl)cc1Cl [2,4-D, 2,4-dichlorophenoxyacetic acid]
- Peak current (A. thaliana PIN8; 100 μM 2,4-D, absence of NPA): 3.226 nA and 5.875 nA
- Peak current (A. thaliana PIN8; 100 μM 2,4-D, presence of 20 µM NPA): 0.9715 nA and 1.501 nA and 1.34 nA
- EC50 (A. thaliana PIN8; [2]): 180 µM and 179 µM
- maximal current Imax (A. thaliana PIN8; [2]): 17 ± 2 nA
- Peak current (A. thaliana PIN8; WT, 5 µM substrate): 0.6835 nA and 0.6464 nA and 0.7573 nA
- Peak current (A. thaliana PIN8; WT, 20 µM substrate): 2.106 nA and 1.934 nA and 2.262 nA
- Peak current (A. thaliana PIN8; WT, 50 µM substrate): 4.032 nA and 3.705 nA
- Peak current (A. thaliana PIN8; WT, 2000 µM substrate): 15.4919 nA and 14.1952 nA and 17.3107 nA
- Imax (PIN8 I51Y): 3 ± 0.8 nA
- EC50 (PIN8 I51Y; [3]): 641 ± 77 µM
- fold-change difference to the respective EC50 of wildtype PIN8 (PIN8 N223A): completely abolishes binding
- Imax (PIN8 S146A; PIN8 S146A, Michaelis–Menten fit): 8 ± 0.9 nA
- EC50 (PIN8 S146A; PIN8 S146A, Michaelis–Menten fit, read-out: EC50 of peak current response): 164 ± 67 µM
- Peak current (PIN8 S146A; 5 µM substrate): 0.446 nA and 0.486 nA and 0.471 nA and 0.573 nA
- Peak current (PIN8 S146A; 20 µM substrate): 1.337 nA and 0.845 nA and 1.226 nA and 1.49 nA
- Peak current (PIN8 S146A; 50 µM substrate): 2.387 nA and 1.739 nA and 2.167 nA and 2.694 nA
- Peak current (PIN8 S146A; 100 µM substrate): 3.422 nA and 2.581 nA and 3.052 nA and 3.828 nA
- Peak current (PIN8 S146A; 500 µM substrate): 6.088 nA and 4.842 nA and 5.334 nA and 6.787 nA
- Peak current (PIN8 S146A; 1000 µM substrate): 7.15 nA and 6.069 nA and 6.109 nA and 7.864 nA
- Peak current (PIN8 S146A; 2000 µM substrate): 8.119 nA and 7.96 nA and 6.88 nA and 9.033 nA
- Imax (PIN8 S55A; PIN8 S55A, Michaelis–Menten fit): 6 ± 0.6 nA
- EC50 (PIN8 S55A; PIN8 S55A, Michaelis–Menten fit, read-out: EC50 of peak current response): 95 ± 36 µM
- Peak current (PIN8 S55A; 5 µM substrate): 0.5771 nA and 0.4543 nA and 0.3145 nA and 0.4609 nA
- Peak current (PIN8 S55A; 20 µM substrate): 1.612 nA and 1.263 nA and 1.114 nA and 1.2922 nA
- Peak current (PIN8 S55A; 50 µM substrate): 2.6274 nA and 2.193 nA and 2.012 nA and 0.000174 nA
- Peak current (PIN8 S55A; 100 µM substrate): 3.62 nA and 3.055 nA and 2.8112 nA and 3.289 nA
- Peak current (PIN8 S55A; 500 µM substrate): 5.907 nA and 5.083 nA and 4.589 nA and 5.296 nA
- Peak current (PIN8 S55A; 1000 µM substrate): 6.235 nA and 5.542 nA and 4.855 nA and 5.533 nA
- Peak current (PIN8 S55A; 2000 µM substrate): 6.017 nA and 5.654 nA and 4.774 nA and 5.542 nA
- Imax (PIN8 S55A/S146A): 9 ± 2 nA
- EC50 (PIN8 S55A/S146A; [3]): 38 ± 6 µM
- Imax (PIN8 Y150A; PIN8 Y150A, Michaelis–Menten fit): 5 ± 1 nA
- EC50 (PIN8 Y150A; PIN8 Y150A, Michaelis–Menten fit, read-out: EC50 of peak current response): 684 ± 256 µM
- Peak current (PIN8 Y150A; 5 µM substrate): 0.1509 nA and 0.05154 nA and 0.05368 nA and 0.1258 nA
- Peak current (PIN8 Y150A; 20 µM substrate): 0.08307 nA and 0.2336 nA and 0.2155 nA and 0.2901 nA
- Peak current (PIN8 Y150A; 50 µM substrate): 0.3395 nA and 0.5519 nA and 0.4679 nA and 0.5665 nA
- Peak current (PIN8 Y150A; 100 µM substrate): 0.6832 nA and 0.8682 nA and 0.7895 nA and 0.907 nA
- Peak current (PIN8 Y150A; 500 µM substrate): 2.171 nA and 2.337 nA and 2.071 nA and 2.343 nA
- Peak current (PIN8 Y150A; 1000 µM substrate): 3.151 nA and 3.173 nA and 2.762 nA and 3.101 nA
- Peak current (PIN8 Y150A; 2000 µM substrate): 4.437 nA and 4.148 nA and 3.583 nA and 4.038 nA
- current response / function of PIN8 N117A (PIN8 N117A; N117A mutation): abolishes the current response; also recorded: abolishes function
- Relative Peak Current of WT (%) (PIN8 N117A; 2mM): 22.8804% and 23.9685% and 24.9449% and 20.0988%
- Relative Peak Current of WT (%) (PIN8 N117A): 9.311% and 12.1121% and 13.3294% and 14.1031%
- peak width of SSM-based current response as a function of lipid-to-protein ratio (LPR) [1]: vary with lipid-to-protein ratio (LPR)
